{"source": "patent US9850493B2", "about": "“Biological methods for preparing a fatty dicarboxylic acid” (VERDEZYNE, INC., priority 2012, dated 2017)", "experiment": "In vitro acyl-CoA oxidase activity assay of E. coli lysates", "assay_type": "biochemical, Candida strain ATCC20336", "settings": "wild type enzyme, FIG. 21", "from_the_text": "Acyl-CoA oxidases from a range of organisms were cloned into the E. coli expression vector pET26b (EMD4Biosciences, Darmstadt, Germany), which contains a kanamycin resistance cassette. The source of the acyl-CoA oxidase, the name of the gene, the primers and restriction enzymes used to clone the acyl CoA oxidase coding sequence into pET26b and the coding sequence are described herein. The acyl CoA oxidase coding sequences were amplified by PCR using the appropriate primers designed from cDNA libraries, published cDNA or genomic DNA sequences corresponding to the organism. […]\nTo express an enzyme, a colony from each transformation of Rosetta cells was used to start a 5 ml overnight culture of LB containing the antibiotics kanamycin (to select for pET26b) and chloramphenicol (to select for a second plasmid found in Rosetta II cells that mediates improved translation of eukaryotic proteins expressed in E. coli) grown at 37° C. The next morning, the overnight culture was used to seed 30 ml of LB containing kanamycin and chloramphenicol to an OD600 reading of 0.1. […]\nTo test the activity of the acyl CoA oxidase, cells from the overnight induction were pelleted at 1046×g at 4° C. in 50 ml conical tubes. […] The spectrophotometer was set to read for 5 minutes at 500 nm, 30° C. […]", "data": [{"substance": "Pox5: wild type acyl CoA oxidase Pox5 from Candida strain ATCC20336", "values": [{"measurement": "activity on C6 and C8 substrates", "result": "low activity"}, {"measurement": "substrate chain length of optimal activity", "result": "12 to 18", "unit": "carbons"}]}]}
